We go through 13 compounds from ChEMBL document CHEMBL5120803, “Design, synthesis and activity study of a novel PI3K degradation by hijacking VHL E3 ubiquitin ligase” (2022).

Activity calls are given as the source filed them. The rule behind the calls is not given here.

In one experiment the test system is HT-29. Description: Antiproliferative activity against human HT-29 cells assessed as inhibition of cell proliferation at 10 uM incubated for 72 hrs by CCK8 assay relative to control. It counts as functional. On the set-up: scale not given: the % may be the effect or the level left. On the technique in general: Tetrazolium assays rely on reduction of a dye to a coloured formazan, in cell work by metabolically active cells.

The next experiment concerns HCT-116. Description: Antiproliferative activity against human HCT-116 cells assessed as inhibition of cell proliferation at 10 uM incubated for 72 hrs by CCK8 assay relative to control. The experiment is classed as functional. On the set-up: scale not given: the % may be the effect or the level left.
For experiment [1], the target named is Phosphatidylinositol 4,5-bisphosphate 3-kinase catalytic subunit alpha isoform (Homo sapiens) (UniProt P42336). Description: Inhibition on PI3Kalpha (unknown origin) at 1 nM by kinase-glo plus luminescent assay relative to control. On the technique in general: In Kinase-Glo more light means more ATP remaining.
The next experiment has as its system HeLa. Description: Antiproliferative activity against human HeLa cells assessed as inhibition of cell proliferation at 10 uM incubated for 72 hrs by CCK8 assay relative to control. More on the design: scale not given: the % may be the effect or the level left. It counts as functional.
The target in experiment [2] is T1, von Hippel-Lindau disease tumor suppressor/Phosphatidylinositol 4,5-bisphosphate 3-kinase catalytic subunit alpha isoform (Homo sapiens) (UniProt P42336+P40337). Description: PROTAC activity at VHL/PI3K in human HeLa cells assessed as redcution in AKT phosphorylation at 3 uM incubated for 24 hrs by Western blotting analysis. It counts as cell-based. Background: In western blotting, separated proteins are transferred to a membrane and probed.

Experiment [3] addresses T1, von Hippel-Lindau disease tumor suppressor/Phosphatidylinositol 4,5-bisphosphate 3-kinase catalytic subunit alpha isoform (Homo sapiens). Nature of the experiment: PROTAC activity at VHL/PI3K in human HeLa cells assessed as induction of PI3Kalpha degradation at 1 to 10 uM incubated for 24 hrs by Western blotting analysis. The experiment is classed as cell-based. The following applies: dose 1-10 µM.

For experiment [4] the target is unchanged. Description: PROTAC activity at VHL/PI3K in human HeLa cells assessed as induction of PI3Kalpha degradation at 3 uM incubated for 24 hrs by Western blotting analysis. The experiment is classed as cell-based.
For experiment [5] the target is unchanged. Description: PROTAC activity at VHL/PI3K in human HeLa cells assessed as inhibition of AKT phosphorylation by Western blotting analysis. The following applies: time 2-12 hrs, TDE = time-dependent effect. The experiment is classed as cell-based.
Experiment [6] shares this target. Nature of the experiment: PROTAC activity at VHL/PI3K in human HeLa cells assessed as induction of PI3Kalpha degradation by Western blotting analysis. Particulars: time 2-12 hrs, TDE = time-dependent effect. The experiment is classed as cell-based.
Experiment [7] shares this target. Nature of the experiment: PROTAC activity at VHL/PI3K in human HeLa cells assessed as reduction in AKT phosphorylation at 10 uM incubated for 24 hrs by Western blotting analysis. The experiment is classed as cell-based.
For experiment [8] the target is unchanged. Description: PROTAC activity at VHL/PI3K in human HeLa cells assessed as induction of PI3Kalpha degradation at 10 uM incubated for 24 hrs by Western blotting analysis. It counts as cell-based.

Chain of Phosphatidylinositol 4,5-bisphosphate 3-kinase catalytic subunit alpha isoform (Homo sapiens) (P42336 whole entry, canonical isoform): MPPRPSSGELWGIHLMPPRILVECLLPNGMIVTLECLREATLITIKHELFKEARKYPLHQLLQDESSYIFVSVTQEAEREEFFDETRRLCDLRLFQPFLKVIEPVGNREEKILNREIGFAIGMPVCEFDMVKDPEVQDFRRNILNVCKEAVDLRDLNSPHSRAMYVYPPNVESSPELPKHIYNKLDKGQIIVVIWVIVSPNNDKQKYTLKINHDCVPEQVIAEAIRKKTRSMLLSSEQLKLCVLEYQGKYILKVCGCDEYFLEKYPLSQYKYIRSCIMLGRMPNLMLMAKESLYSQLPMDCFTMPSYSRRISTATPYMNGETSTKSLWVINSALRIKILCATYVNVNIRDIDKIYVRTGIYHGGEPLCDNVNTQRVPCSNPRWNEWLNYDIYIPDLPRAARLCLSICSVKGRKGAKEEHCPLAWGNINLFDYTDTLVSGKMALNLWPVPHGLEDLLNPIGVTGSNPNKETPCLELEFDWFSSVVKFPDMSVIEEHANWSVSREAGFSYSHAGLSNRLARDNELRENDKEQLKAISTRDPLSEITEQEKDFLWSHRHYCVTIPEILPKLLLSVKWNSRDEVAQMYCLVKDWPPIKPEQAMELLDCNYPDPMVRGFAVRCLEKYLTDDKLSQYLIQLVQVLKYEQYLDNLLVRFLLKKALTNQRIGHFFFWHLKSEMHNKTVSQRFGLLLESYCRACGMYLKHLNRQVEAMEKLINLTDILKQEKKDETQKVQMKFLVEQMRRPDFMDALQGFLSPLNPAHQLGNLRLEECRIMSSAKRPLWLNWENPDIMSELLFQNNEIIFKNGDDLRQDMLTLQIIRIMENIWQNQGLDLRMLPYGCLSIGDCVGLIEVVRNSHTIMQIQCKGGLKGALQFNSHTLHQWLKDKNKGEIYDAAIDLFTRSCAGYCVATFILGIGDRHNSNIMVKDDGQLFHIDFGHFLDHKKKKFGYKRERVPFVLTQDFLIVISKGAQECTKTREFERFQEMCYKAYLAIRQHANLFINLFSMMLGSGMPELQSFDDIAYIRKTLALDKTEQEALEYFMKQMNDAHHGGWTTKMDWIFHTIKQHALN
T1 sequence (P40337 whole entry, looked up, canonical isoform): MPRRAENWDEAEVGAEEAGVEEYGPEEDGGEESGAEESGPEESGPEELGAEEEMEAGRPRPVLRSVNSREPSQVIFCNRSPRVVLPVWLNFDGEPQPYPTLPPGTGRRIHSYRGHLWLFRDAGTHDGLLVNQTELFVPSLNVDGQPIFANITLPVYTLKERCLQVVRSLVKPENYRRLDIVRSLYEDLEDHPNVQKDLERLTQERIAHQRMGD
T1 sequence (P42336 whole entry, looked up, canonical isoform): as the sequence (P42336 whole entry, canonical isoform) above

As for `COc1ncc(-c2ccc3ncc(-c4nnc(-c5ccccc5C(=O)NCCOCCOCC(=O)N[C@H](C(=O)N5C[C@@H](O)C[C@@H]5C(=O)NCc5ccc(-c6scnc6C)cc5)C(C)(C)C)o4)n3c2)cc1NS(=O)(=O)c1ccc(F)cc1F`, the Activity is on record as 57.14% with HT-29, 33.84% in the experiment with HCT-116 and 89.21% with HeLa. Besides, the inhibition (usually the share of the control response that was lost under treatment) in experiment [1] amounted to 31.7%.
As to `COc1ncc(-c2ccc3ncc(-c4nnc(-c5ccccc5C(=O)NCCCCCCC(=O)N[C@H](C(=O)N5C[C@@H](O)C[C@@H]5C(=O)NCc5ccc(-c6scnc6C)cc5)C(C)(C)C)o4)n3c2)cc1NS(=O)(=O)c1ccc(F)cc1F`, the result in experiment [2], in experiment [3], in [4], in experiment [7] and in experiment [8] was Active. In addition, the Activity in the experiment with HT-29 was 72.18%; in the experiment on HCT-116, 50.3%; in experiment [5], “Tde”; in experiment [6], “Tde”; with HeLa, 96.33%. Besides, the inhibition in experiment [1] was 49.8%.
Regarding `COc1ncc(-c2ccc3ncc(-c4nnc(-c5ccccc5C(=O)NCCOCCOCCOCC(=O)N[C@H](C(=O)N5C[C@@H](O)C[C@@H]5C(=O)NCc5ccc(-c6scnc6C)cc5)C(C)(C)C)o4)n3c2)cc1NS(=O)(=O)c1ccc(F)cc1F`, the Activity in the experiment on HT-29 was 22.69%; with HCT-116, 48.88%; in the experiment on HeLa it was 90.1%. The inhibition in experiment [1] is 59.1%.
The corresponding values for `COc1ncc(-c2ccc3ncc(-c4nnc(-c5ccccc5C(=O)NCCCCC(=O)N[C@H](C(=O)N5C[C@@H](O)C[C@@H]5C(=O)NCc5ccc(-c6scnc6C)cc5)C(C)(C)C)o4)n3c2)cc1NS(=O)(=O)c1ccc(F)cc1F` are 82.88%, 23.94%, 32.2% and 22.2%.
Taken in the same sequence, the figures for `COc1ncc(-c2ccc3ncc(-c4nnc(-c5ccccc5C(=O)NCCOCCOCCOCCOCCOCC(=O)N[C@H](C(=O)N5C[C@@H](O)C[C@@H]5C(=O)NCc5ccc(-c6scnc6C)cc5)C(C)(C)C)o4)n3c2)cc1NS(=O)(=O)c1ccc(F)cc1F` were 61.35%, 37.32%, 85.58% and 51.9%.
Taken in the same sequence, the figures for `COC(=O)c1ccccc1-c1nnc(-c2cnc3ccc(-c4cnc(OC)c(NS(=O)(=O)c5ccc(F)cc5F)c4)cn23)o1` were 80.36%, 91.65%, 99.37% and 70.2%.
For the compound `COc1ncc(-c2ccc3ncc(-c4nnc(-c5ccccc5C(=O)NCCOCCOCCOCCOCCOCCOCC(=O)N[C@H](C(=O)N5C[C@@H](O)C[C@@H]5C(=O)NCc5ccc(-c6scnc6C)cc5)C(C)(C)C)o4)n3c2)cc1NS(=O)(=O)c1ccc(F)cc1F`, the Activity was determined as 56.24% in the experiment on HCT-116 and 91.27% in the experiment with HeLa. In addition, the inhibition in [1] came out at 48.6%.
On to `COc1ncc(-c2ccc3ncc(-c4nnc(-c5ccccc5C(=O)N[C@H](C(=O)N5C[C@@H](O)C[C@@H]5C(=O)NCc5ccc(-c6scnc6C)cc5)C(C)(C)C)o4)n3c2)cc1NS(=O)(=O)c1ccc(F)cc1F`, for which the values for the Activity in the experiment with HCT-116 and with HeLa were 95.86% and 30.38%, respectively. Moreover, the inhibition in experiment [1] worked out at 33.6%.
Turning to `COc1ncc(-c2ccc3ncc(-c4nnc(-c5ccccc5C(=O)NCCOCC(=O)N[C@H](C(=O)N5C[C@@H](O)C[C@@H]5C(=O)NCc5ccc(-c6scnc6C)cc5)C(C)(C)C)o4)n3c2)cc1NS(=O)(=O)c1ccc(F)cc1F`, the Activity in the experiment on HT-29 is reported as 51.09%; in the experiment on HCT-116 it was 25.32%; in the experiment with HeLa, 23.41%. Besides, in experiment [1], the inhibition is 40.1%.
On to `COc1ncc(-c2ccc3ncc(-c4nnc(-c5ccccc5C(=O)O)o4)n3c2)cc1NS(=O)(=O)c1ccc(F)cc1F`, for which the Activity is given as 8.23% in the experiment with HCT-116 and 1.62% with HeLa. Moreover, the inhibition in experiment [1] was determined as 67.1%.
Consider `COc1ncc(-c2ccc3ncc(-c4nnc(-c5ccccc5C(=O)NCCOCCOCCOCCOCC(=O)N[C@H](C(=O)N5CC(O)CC5C(=O)NCc5ccc(-c6scnc6C)cc5)C(C)(C)C)o4)n3c2)cc1NS(=O)(=O)c1ccc(F)cc1F` (single isomer, unassigned), for which the Activity with HT-29 is 50.35%; in the experiment on HCT-116, 57.87%; in the experiment on HeLa it was 89.6%. Further, the inhibition in [1] worked out at 57.5%.
Turning to `COc1ncc(-c2ccc3ncc(-c4nnc(-c5ccccc5C(=O)NCCCCCC(=O)N[C@H](C(=O)N5C[C@@H](O)C[C@@H]5C(=O)NCc5ccc(-c6scnc6C)cc5)C(C)(C)C)o4)n3c2)cc1NS(=O)(=O)c1ccc(F)cc1F`, the outcome in [2], in experiment [3], in [4], in experiment [7] and in [8] was Active. Moreover, the values for the Activity with HT-29, in the experiment with HCT-116 and in the experiment with HeLa were 89.26%, 41.16% and 94.03%, respectively. For the same compound, the inhibition in experiment [1] was determined as 60%.
As for `COc1ncc(-c2ccc3ncc(-c4nnc(-c5ccccc5C(=O)NCCCCCCCC(=O)N[C@H](C(=O)N5CC(O)CC5C(=O)NCc5ccc(-c6scnc6C)cc5)C(C)(C)C)o4)n3c2)cc1NS(=O)(=O)c1ccc(F)cc1F` (single isomer, unassigned), the Activity in the experiment on HT-29 amounted to 74.22%; in the experiment with HCT-116, 70.03%; in the experiment on HeLa it was 87.89%. For the same compound, the inhibition in experiment [1] was 65.2%.
